Laboratory results taken from US11819489B2 (priority 2017, dated 2023).
Read-outs that look alike come from different tables or passages of the source.

Assays:
HepG2 cells [1] = assay type: cell-based, human
Kasumi-1 cells [2] = experiment: cells; details: Homo sapiens, Kasumi 1, 24 h
KARPAS 45 cells [3] = system: KARPAS 45 cells
K562 cells [4] = experiment: cells; details: Homo sapiens, K562, 24 h
Kasumi-1 cells [5] = experiment: Cellular As uptake, Kasumi-1 cells; assay type: cell-based, human; details: Kasumi-1, 24-h treatment, 1.5 μM As
Experimental: (§1) FIG. 24 is a graphical summary of the cellular As concentrations associated with the specified cell lines following 24-h treatment (1.5 μM As). The results are represented as the mean and standard deviation of triplicate samples.
(§2) FIG. 24 summarises the cellular As concentrations associated with the different cell types following 24-h treatment with the various As compounds (1.5 μM As). The leukemia cell lines, K562, HL-60, Kasumi-1 and KARPAS 45, are depicted in red (lighter of the filled in blocks), and the non-leukemia cell types are depicted in black (darkest shading), with the cancerous adherent cells, HepG2, in the diagonal stripes, and the normal cells, hPBMC, in solid black.

HepG2 cells [6] = experiment: cells; details: Homo sapiens, HepG2, 24 h
K562 cells [7] = experiment: Cellular As uptake, K562 cells; assay type: cell-based, human; details: K562, 24-h treatment, 1.5 μM As
Experimental: as §1, §2

KARPAS 45 cells [8] = experiment: Cellular As uptake, KARPAS 45 cells; assay type: cell-based, human; details: 1.5 μM As
Experimental: as §1, §2

hPBMC = experiment: Cellular As uptake, hPBMC; assay type: cell-based, human; details: 24-h treatment, 1.5 μM As
Experimental: as §1, §2

[9] = system: Chinese hamster (CH) solid tumour cells; experiment: cells; details: Cricetulus griseus, 24 h
[10] = system: human peripheral blood mononuclear cells (hPBMC); experiment: cells; details: PBMC, 24 h
K562 cells [11] = system: K562 cells
KARPAS 45 cells [12] = experiment: cells; details: Homo sapiens, 24 h
HL-60 cells [13] = experiment: cells; details: Homo sapiens, HL-60, 24 h
HL-60 cells [14] = experiment: Cellular As uptake, HL-60 cells; assay type: cell-based, human; details: HL-60, 24-h treatment, 1.5 μM As
Experimental: as §1, §2

[15] = system: human peripheral blood mononuclear cells (hPBMC)
in vitro [16] = details: human
in vitro [17] = details: Chinese hamster

| Compound | cellular As concentration (HepG2 cells [1]) | IC50 (Kasumi-1 cells [2]) [µM] | IC50 (KARPAS 45 cells [3]) [µM] | IC50 (K562 cells [4]) [µM] | cellular As concentration (Kasumi-1 cells [5]) | IC50 (HepG2 cells [6]) [µM] | cellular As concentration (K562 cells [7]) | cellular As concentration in KARPAS 45 cells, times more than in HepG2 cells (KARPAS 45 cells [8]; 24-h treatment) [times] | cellular As concentration (KARPAS 45 cells [8]; KARPAS 45, 24-h treatment) | cellular As concentration (hPBMC) | IC50 [9] [µM] | IC50 [10] [µM] | IC50 (K562 cells [11]) [µM] | IC50 (KARPAS 45 cells [12]) [µM] | IC50 (HL-60 cells [13]) [µM] | cellular As concentration (HL-60 cells [14]) | IC50 [15] [µM] | viability at 1000 µM (K562 cells [4]; read-out: K562 cells still viable) [%] | viability (in vitro [16]) [%] | viability (in vitro [17]) [%] |
| --- | --- | --- | --- | --- | --- | --- | --- | --- | --- | --- | --- | --- | --- | --- | --- | --- | --- | --- | --- | --- |
| O=[As]O [Arsenite, Sodium meta-arsenite] | < 4×10^−14 g/cell | 61.2 ± 0.6 | 66 ± 3 | 18.6 ± 0.49 | < 4×10^−14 g/cell | 89 ± 1 | < 4×10^−14 g/cell | 2.2 | < 4×10^−14 g/cell | < 4×10^−14 g/cell | 26.1 ± 0.8 | 40.1 ± 7.7 | 18.6 ± 0.5 | 66.2 ± 2.6 | 20 ± 1 | < 4×10^−14 g/cell | 40 ± 8 | – | – | – |
| CC(=O)Nc1cc([As](=O)(O)O)ccc1O [Acetarsol] | – | – | – | > 1000 | – | > 1000 | – | – | – | – | > 1000 | > 1000 | – | > 1000 | > 1000 | – | – | 60.5 | ~100 | ~100 |
